According to patent publication US20200268720A1, “METHODS OF USE OF A CLASS IIA HDAC INHIBITOR” (GlaxoSmithKline LLC, priority 2016, published 2020):
“Also recorded” adds a separate entry of the source.

How the values were obtained:
[1] = tested on: human breast cancer cell lines (BT20, MCF7, HCC202, T47D, MDA-MB-453 and MDA-MB-436); test: In vitro cell death assay (CellTiter-Glo), human lines; type: cell-based; details: 0, 0.1, 1, 10 μM, 48 hours
Protocol: The human breast cancer cell lines (BT20, MCF7, HCC202, T47D, MDA-MB-453 and MDA-MB-436) were obtained from ATCC. Prior to use, cell line authentication was performed by either STR profiling at Dana-Farber Cancer Institute or by Fluidigm based fingerprinting with a panel of SNPs at The Broad Institute. Cell lines were tested for mycoplasma with the MycoAlert PLUS Mycoplasma Detection Kit (Lonza LT07) according to manufacturer's instructions. Mouse breast tumor cell lines were established from 4 different MMTV-PyMT tumor bear mice. Mouse breast tumor cell line 7333 was implanted into wild-type littermates and once the tumor formed it was removed and used to generate the tumor cell line “MMTV”. All cells were plated at 1E4 cells/well in a 96 well plate. Cells were treated for 48 hours and CellTiter-Glo was used to assess cell viability.

whole MMTV-PyMT tumors = test: Gene expression in RNA isolated from whole tumors after two weeks of treatment; type: in vivo, mouse; details: two weeks TMP195 vs vehicle, n=3 mice per group
Protocol: All procedures were performed at Boston University Microarray Resource Facility as described in the […] ® Whole Transcript (WT) Plus Reagent Kit Manual (Affymetrix, Santa Clara, Calif.). Briefly, the total RNA was isolated using an RNEASY® kit (Qiagen), and the sample integrity was verified using RNA 6000 Pico Assay RNA chips run in Agilent 2100 Bioanalyzer (Agilent Technologies). […] The obtained cDNA was used as a template for in vitro transcription using GeneChip® WT Expression Kit (Life Technologies). […] During this step, dUTP was incorporated. […] IVT and cDNA fragmentation quality controls were carried out by running an mRNA Pico assay in the Agilent 2100 Bioanalyzer. The labeled fragmented DNA was hybridized to the Gene Arrays 1.0ST for 16-18 h in […] ® Hybridization oven 640 at 45° C. with rotation (60 r.p.m.). The hybridized samples were washed and stained using Affymetrix fluidics station 450 as per manufacturer's instruction (Hybridization, Washing and Staining kit, Affymetrix). Microarrays were immediately scanned using Affymetrix GeneArray Scanner 3000 7G Plus (Affymetrix).

[2] = tested on: myeloid cells (CD11b+) and T lymphocyte (CD3+) populations in the tumor; test: Gene expression of FACS double-sorted tumor infiltrating leukocytes from MMTV-PyMT tumors; type: in vivo, mouse
Protocol: Tumor cells were isolated and processed as previously described. To enrich for CD45^+ immune cells, EPCAM^+ tumor cell depletion was carried out. Whole tumor cell suspension was incubated with biotinylated anti-EPCAM antibody (MACS Miltenyi cat. #130-101-859, clone caa7-9G8) for 10 minutes followed by incubation with Anti-Biotin Microbeads (MACS Miltenyi cat. #130-090-485) for 15 minutes at 4° C. in the dark. […] Following negative selection, EPCAM-depleted cells were stained for anti-mouse CD45 Alex FLOUR® 488 (BioLegend cat. #103121, clone 30-F11), anti-mouse CD3 BV421 (BioLegend cat. #100227, clone 17A2), anti-mouse CD11b APC (BioLegend cat. #101211, clone M1/70), and anti-mouse CD19 (BioLegend cat. #115507, clone 6D5). 7-AAD Viability Staining Solution (BioLegend cat. #420403) was applied to the cells 10 minutes prior to sorting on the BD FACSAria. CD45+/CD19-/7-AAD-/CD3+ cells and CD45+/CD19-/7-AAD-/CD11b+ cells were sorted into DMEM medium (Life Technologies cat. #11995-065) containing 2% FBS at 4° C. Cells were pelleted and immediately lysed in RNEASY® RLT buffer (RNEASY® Mini Plus Kit, Qiagen cat. #74134) containing 2-mercaptoethanol. RNA was isolated according to RNEASY® instructions in combination with RNase-Free DNase Set (Qiagen cat. #79254) standard protocol, and quality was verified with the Nanodrop™ Spectrophotometer. To obtain adequate amounts of RNA tumors from 5 mice were pooled together for each “sample”.
All procedures were performed at Boston University Microarray Resource Facility as described in the GENECHIP® Whole Transcript (WT) Plus Reagent Kit Manual (Affymetrix, Santa Clara, Calif.). Briefly, the total RNA was isolated using an RNEASY® kit (Qiagen), and the sample integrity was verified using RNA 6000 Pico Assay RNA chips run in Agilent 2100 Bioanalyzer (Agilent Technologies). The total RNA (200 ng) was reverse transcribed using GENECHIP® WT PLUS Reagent Kit (Affymetrix). The obtained cDNA was used as a template for in vitro transcription using GeneChip® WT Expression Kit (Life Technologies). The obtained antisense cRNA was purified using Nucleic Acid Binding Beads (GENECHIP® WT PLUS Reagent Kit, Affymetrix) and used as a template for reverse transcription to produce single-stranded DNA in the sense orientation. During this step, dUTP was incorporated. The DNA was then fragmented using uracil DNA glycosylase (UDG) and apurinic/apyrimidinic endonuclease 1 (APE 1) and labeled with DNA labeling reagent covalently linked to biotin using terminal deoxynucleotidyl transferase (TdT, GENECHIP® WT PLUS Reagent Kit, Affymetrix). IVT and cDNA fragmentation quality controls were carried out by running an mRNA Pico assay in the Agilent 2100 Bioanalyzer. […]

tumor macrophages = test: New vs. pre-existing macrophage dextran experiment; type: in vivo, mouse; details: 5 days of TMP195 vs vehicle
Protocol: MMTV-PyMT tumor-bearing mice were injected with 0.25 mg/mouse (10 mpk) low molecular weight (10,000 MW) Alexa555-labelled dextran (Life Technologies D34679) which is readily taken up by phagocytic cells. Mice were then treated for 5 consecutive days with DMSO or TMP195. Two hours before the mice were sacrificed they were injected with 0.25 mg/mouse of another low molecular weight (10,000 MW) dextran, this time labeled with Alexa594 (Life Technologies D22913)14. Tumors were collected as described above and flow cytometry was performed. […] Mice that received only one of the dextran conjugates were used as controls for flow cytometry.

[3] = 50 mg/kg TMP195 IP daily, 5 days vs DMSO
[4] = TMP195 daily for 5 days vs DMSO

CC(C)(CNC(=O)c1cccc(-c2noc(C(F)(F)F)n2)c1)c1coc(-c2ccccc2)n1 [TMP195, N-(2-methyl-2-(2-phenyloxazol-4-yl)propyl)-3-(5-(trifluoromethyl)-1,2,4-oxadiazol-3-yl)benzamide]
cell viability, 6 human breast cancer cell lines [1]: not directly cytotoxic; also recorded: does not affect cell viability | proportion of myeloid (CD11b+) and mature macrophages (Mac-2+, CD115+, F480+) in tumors (MMTV-PyMT tumors; [3]): increased proportion | proportion of other tumor infiltrating immune cells examined (MMTV-PyMT tumors; [3]): without affecting | MHCII+CD11bhi (MTM) cell population in tumors (MMTV-PyMT tumors; 5 days of TMP195 treatment): increase | proportion of pro-tumor TAMs (MHCII+CD11blo) (MMTV-PyMT tumors; 5 days of TMP195 treatment): decrease; also recorded: significant reduction | cytotoxic T lymphocytes in tumors (Granzyme B+ of CD45+CD3+CD8+ cells) (MMTV-PyMT tumors; 5 days of TMP195 vs vehicle): significantly increases; also recorded: increase | proportion of CD8+ T cells in the tumor (MMTV-PyMT tumors; TMP195 treatment): does not change | differential gene expression in whole tumor RNA (whole MMTV-PyMT tumors): overall lack of differential gene expression | number of differentially expressed probes (δ-factor >1.5) in CD3+ cells [2, 4]: 3 probes | number of differentially expressed probes (δ-factor >1.5) in CD11b+ cells [2, 4]: 26 probes | increase in gene expression in CD11b+ myeloid cells ([2]; TMP195 daily for 5 days vs DMSO, probes with δ-factor >1.5): up to 4.8 fold | IFNγ response gene signature in tumor-resident CD11b+ cells ([2]; TMP195 treatment): induced an IFNγ response gene signature | number of new macrophages in the tumor (tumor macrophages): increases | number of pre-existing macrophages in the tumor (tumor macrophages): not and without affecting
